# Experimental data reported in patent US20250129091A1, “THIENOPYRROLOTRIAZINE COMPOUNDS, THEIR PREPARATION AND THEIR THERAPEUTIC USE” (Sanofi, priority 2022, published 2025).
# Test system: NLRP3 inflammasome
# Test: IL-1β secretion assay (LPS-primed, nigericin-activated THP-1 cells, MSD readout)
# Assay type: cell-based
# Conditions: Homo sapiens, THP-1, LPS-primed, read-out: IL1b IC50
# Protocol: Monocytic THP-1 cells (DSMZ) were maintained in RPMI media (RPMI 1640 Medium (1×) +10% FBS, Eurobio CVFSVFOO—OU). Cells were then plated at 16,000 cells per well in 96-well round bottom cell culture plates (TPP, ref 92097) and maintained with RPMI and 0.1% Bovine Serum Albumin solution. Activation of the NLRP3 inflammasome requires both an NF-kB-dependent priming step and the addition of a NLRP3 activator. The priming step was induced by LPS (10 ng/mL, Sigma, ref:L4391) for 3 h at 37° C., then compound, in a 1:3.10 serial dilution series in DMSO 1:100, and the activator nigericin (Sigma Aldrich, ref: SML1779) 10 μM (final concentration) were added to the cells and co-incubated for 2 h. 50 μL supernatant was removed, and IL-1β levels were monitored using an MSD assay (Electro Chemical Luminescence Immunoassay (ECLI) according to manufacturers' instructions.
# IC50 values were calculated from the plot of percentage of inhibition versus the inhibitor concentration by a logistics fit according to: y=A2+(A1−A2)/(1+(x/IC50)^p) where y is the %-inhibition at the inhibitor concentration, x. A1 is the lowest inhibition value, i.e., 0%, and A2 the maximum inhibition value, i.e., 100%. The exponent, p, is the Hill coefficient. The curve fitting was conducted with an internally developed software.
row,IC50,Structure (SMILES)
1,82 nM,"CC(C)(O)c1nn(CC(=O)N[C@@H]2CCCN(C3CC3)C2)c(=O)c2cc3ccsc3n12 [Example 52, (R)—N-(1-cyclopropylpiperidin-3-yl)-2-(8-(2-hydroxypropan-2-yl)-5-oxothieno[3′,2′:4,5]pyrrolo[1,2-d][1,2,4]triazin-6(5H)-yl)acetamide]"
2,1070 nM,"CC(C)c1nn(CC(=O)Nc2ccnn2C)c(=O)c2cc3ccsc3n12 [Example 53, 2-(12-isopropyl-9-oxo-3-thia-1,10,11-triazatricyclo[6.4.0.02,6]dodeca-2(6),4,7,11-tetraen-10-yl)-N-(2-methylpyrazol-3-yl)acetamide]"
3,1710 nM,"CC(C)c1nn(CC(=O)Nc2ccn(C)n2)c(=O)c2cc3ccsc3n12 [Example 54, 2-(12-isopropyl-9-oxo-3-thia-1,10,11-triazatricyclo[6.4.0.02,6]dodeca-2(6),4,7,11-tetraen-10-yl)-N-(1-methylpyrazol-3-yl)acetamide]"
4,3230 nM,"CC(C)c1nn(CC(=O)NCC2CC(=O)N(C(C)(C)C)C2)c(=O)c2cc3ccsc3n12 (centres unmarked) [Example 55, N-[(1-tert-butyl-5-oxo-pyrrolidin-3-yl)methyl]-2-(12-isopropyl-9-oxo-3-thia-1,10,11-triazatricyclo[6.4.0.02,6]dodeca-2(6),4,7,11-tetraen-10-yl)acetamide]"
5,1470 nM,"CC(C)c1nn(CC(=O)Nc2cccnc2)c(=O)c2cc3ccsc3n12 [Example 56, 2-(12-isopropyl-9-oxo-3-thia-1,10,11-triazatricyclo[6.4.0.02,6]dodeca-2(6),4,7,11-tetraen-10-yl)-N-(3-pyridyl)acetamide]"
6,657 nM,"CC(C)c1nn(CC(=O)Nc2ccccn2)c(=O)c2cc3ccsc3n12 [Example 58, 2-(12-isopropyl-9-oxo-3-thia-1,10,11-triazatricyclo[6.4.0.02,6]dodeca-2(6),4,7,11-tetraen-10-yl)-N-(2-pyridyl)acetamide]"
7,130 nM,"CCc1nn(CC(=O)N[C@@H]2CCCN(C3CC3)C2)c(=O)c2cc3ccsc3n12 [Example 60, N-[(3R)-1-cyclopropyl-3-piperidyl]-2-(12-ethyl-9-oxo-3-thia-1,10,11-triazatricyclo [6.4.0.02,6]dodeca-2(6),4,7,11-tetraen-10-yl)acetamide]"
8,159 nM,"CC(C)c1nn(CC(=O)N[C@@H]2CCCCN(C3CC3)C2)c(=O)c2cc3ccsc3n12 [Example 61, N-[(3R)-1-cyclopropylazepan-3-yl]-2-(12-isopropyl-9-oxo-3-thia-1,10,11-triazatricyclo [6.4.0.02,6]dodeca-2(6),4,7,11-tetraen-10-yl)acetamide]"
9,850 nM,"CC(C)c1nn(CC(=O)N[C@@H]2CCCCN(C)C2)c(=O)c2cc3ccsc3n12 [Example 62, 2-(12-isopropyl-9-oxo-3-thia-1,10,11-triazatricyclo[6.4.0.02,6]dodeca-2(6),4,7,11-tetraen-10-yl)-N-[(3R)-1-methylazepan-3-yl]acetamide]"
10,1660 nM,"CC(C)c1nn(CC(=O)NC2CN(C3CC3)CC(F)(F)C2)c(=O)c2cc3ccsc3n12 (centres unmarked) [Example 63, N-(1-cyclopropyl-5,5-difluoropiperidin-3-yl)-2-(8-isopropyl-5-oxothieno[3′,2′:4,5]pyrrolo [1,2-d][1,2,4]triazin-6(5H)-yl)acetamide 2,2,2-trifluoroacetate]"
11,109 nM,"COCC(C)N1CCC[C@@H](NC(=O)Cn2nc(C(C)C)n3c(cc4ccsc43)c2=O)C1 (stereo partly drawn) [Example 64, 2-(8-isopropyl-5-oxothieno[3′,2′:4,5]pyrrolo[1,2-d][1,2,4]triazin-6(5H)-yl)-N-((3R)-1-(1-methoxypropan-2-yl)piperidin-3-yl)acetamide]"
12,3800 nM,"COc1cc(NC(=O)Cn2nc(C(C)C)n3c(cc4ccsc43)c2=O)ccn1 [Example 65, 2-(8-isopropyl-5-oxothieno[3′,2′:4,5]pyrrolo[1,2-d][1,2,4]triazin-6(5H)-yl)-N-(2-methoxypyridin-4-yl)acetamide]"
13,2070 nM,"CC(C)c1nn(CC(=O)Nc2ccncn2)c(=O)c2cc3ccsc3n12 [Example 66, 2-(12-isopropyl-9-oxo-3-thia-1,10,11-triazatricyclo[6.4.0.02,6]dodeca-2(6),4,7,11-tetraen-10-yl)-N-pyrimidin-4-yl-acetamide]"
14,446 nM,"CC(C)c1nn(CC(=O)Nc2ccncc2)c(=O)c2cc3ccsc3n12 [Example 67, 2-(12-isopropyl-9-oxo-3-thia-1,10,11-triazatricyclo[6.4.0.02,6]dodeca-2(6),4,7,11-tetraen-10-yl)-N-(4-pyridyl)acetamide]"
15,2280 nM,"Cc1ccc(NC(=O)Cn2nc(C(C)C)n3c(cc4ccsc43)c2=O)cn1 [Example 68, 2-(12-isopropyl-9-oxo-3-thia-1,10,11-triazatricyclo[6.4.0.02,6]dodeca-2(6),4,7,11-tetraen-10-yl)-N-(6-methyl-3-pyridyl)acetamide]"
16,3430 nM,"CCc1nn(CC(=O)N[C@@H]2CCCN(C[C@H](C)O)C2)c(=O)c2cc3ccsc3n12 [Example 69, 2-(12-ethyl-9-oxo-3-thia-1,10,11-triazatricyclo[6.4.0.02,6]dodeca-2(6),4,7,11-tetraen-10-yl)-N-[(3R)-1-[(2S)-2-hydroxypropyl]-3-piperidyl]acetamide]"
17,148 nM,"CC(C)c1nn(CC(=O)Nc2ncncc2F)c(=O)c2cc3ccsc3n12 [Example 70, N-(5-fluoropyrimidin-4-yl)-2-(12-isopropyl-9-oxo-3-thia-1,10,11-triazatricyclo[6.4.0.02,6]dodeca-2(6),4,7,11-tetraen-10-yl)acetamide]"
18,70 nM,"CC(C)c1nn(CC(=O)N[C@@H]2CCCN(C3(C)CCCC3)C2)c(=O)c2cc3ccsc3n12 [Example 71, 2-(12-isopropyl-9-oxo-3-thia-1,10,11-triazatricyclo[6.4.0.02,6]dodeca-2(6),4,7,11-tetraen-10-yl)-N-[(3R)-1-(1-methylcyclopentyl)-3-piperidyl]acetamide]"
19,> 10000 nM,"CCCc1nn(CC(=O)N[C@@H]2CCCN(C3CC3)C2)c(=O)c2cc3ccsc3n12 [Example 72, N-[(3R)-1-cyclopropylpiperidin-3-yl]-2-(9-oxo-12-propyl-3-thia-1,10,11-triazatricyclo [6.4.0.02,6]dodeca-2(6),4,7,11-tetraen-10-yl)acetamide]"
20,> 10000 nM,"CCc1nn(CC(=O)N[C@@H]2CCCN(C)C2)c(=O)c2cc3ccsc3n12 [Example 73, 2-(12-ethyl-9-oxo-3-thia-1,10,11-triazatricyclo[6.4.0.02,6]dodeca-2(6),4,7,11-tetraen-10-yl)-N-[(3R)-1-methyl-3-piperidyl]acetamide]"
21,344 nM,"CC(=O)NCC12CC(NC(=O)Cn3nc(C(C)C)n4c(cc5ccsc54)c3=O)(C1)C2 [Example 74, N-[3-(acetamidomethyl)bicyclo[1.1.1]pentan-1-yl]-2-(8-isopropyl-5-oxothieno[3′,2′:4,5]pyrrolo[1,2-d][1,2,4]triazin-6(5H)-yl)acetamide]"
22,157 nM,"CC(C)c1nn(CC(=O)N[C@@H]2CCCN(CC#N)C2)c(=O)c2cc3ccsc3n12 [Example 75, N-[(3R)-1-(cyanomethyl)piperidin-3-yl]-2-(8-isopropyl-5-oxothieno[3′,2′:4,5]pyrrolo[1,2-d][1,2,4]triazin-6(5H)-yl)acetamide]"
23,978 nM,"CC(C)c1nn(CC(=O)N[C@@H]2CCN(C)C2)c(=O)c2cc3ccsc3n12 [Example 76, N-[(3R)-1-methylpyrrolidin-3-yl]-2-(8-isopropyl-5-oxothieno[3′,2′:4,5]pyrrolo[1,2-d][1,2,4]triazin-6(5H)-yl)acetamide]"
